Reference: patent US11607458B2 (Georgia State University Research Foundation, Inc, priority 2017, dated 2023)
Read-outs that look alike come from different tables or passages of the source.

Legend:
[1] = HPLC studies of reaction kinetics of tetrazine prodrugs with cyclooctyne alkynes (Kobs, second-order rate constant k2); assay type: physicochemical; conditions: alkyne 2b; 37° C.; PBS containing 10% DMSO; n = 3
Experimental: Stock solution preparation. Each of the tetrazine prodrugs (compounds 1b, 1c, and 1d) was dissolved in DMSO to afford a 500-μM stock solution. Each of the alkynes (compounds 2a, 2b, 2c, and 2d) was dissolved in DMSO to afford a 50-mM stock solution. Doxorubicin (Dox) and dansylamino compound (DA) 1.1b were each dissolved in DMSO to afford 1-mM stock solutions.
(§1) HPLC method A.: mobile phase A (10 mM NaH2PO4 in water, pH=5.0) and mobile phase B (ACN), flow rate: 1 mL/min, running time: 30 min, the gradient elution method: 25% B from 0 to 6 min, 25% to 50% B from 6 to 8 min, 50% B from 8 to 15 min, 50% to 99% B from 15 to 20 min, 99% B from 20 to 25 min, 99% to 25% B from 25 to 30 min. Detection wavelength: 256 nm. Column: Waters C18 3.5 μM, 4.6×100 mm. Injection volume: 20 μL.
as §1, with “method B:” for “method A.:”, “method: 30%” for “method: 25%”, “min, 30%” for “min, 25%”, “25 min.” for “25 min,”, “to 30%” for “to 25%”, “Detection wavelength 1: 256, detection wavelength 2: 337” for “Detection wavelength: 256”
General procedures HPLC studies of reaction kinetics. To three 20-ml vials with 9 mL PBS were added a solution of tetrazine prodrug (500 μL, 500 μM). 350 μL, 300 μL and 250 μL DMSO were added to vial respectively, and then 150 μL, 200 μL and 250 μL of the alkyne solution (50 mM in DMSO) were added to the vials to afford final concentrations of alkyne 0.75 mM, 1 mM and 1.25 mM in PBS (10% DMSO, 25 μM prodrug) respectively. The reaction was stirred at r.t or 37° C. respectively. Every 30 min about 500 μL reaction mixtures were taken out and 20 μL of them were injected into the HPLC by the autosampler; the rest of them were poured back to the reaction mixture. (Note: In the cases of prodrugs 1d or 1b reacting with alkyne 2d at 37° C., the final concentrations of 2d in the kinetic studies were 250 μM, 300 μM and 350 μM).
Determination of second-order rate constants. The reaction rate constant, kobs, was calculated for each concentration of the alkyne by fitting the prodrug areas versus time using eq. 1: Y=A exp(−kobst) eq. 1 where Y is the prodrug area, and t is time. The pseudo-first-order rate constant, kobs, was then plotted against the concentration of alkyne to yield the second-order rate constant using eq 2: kobs=k2[Alkyne] eq. 2 where k2 is the second-order rate constant.

HeLa cells = assay: Cytotoxicity studies in HeLa cells (MTT assay / crystal violet assay); assay type: cell-based; conditions: for IC50: 48 h, read-out: IC50 in Hela cell line; for effect on cell viability: 20 μM alkyne alone, HeLa cells
Experimental: Cell cultures. HeLa cells (ATCC) were used in the following cell culture studies. HeLa cells were maintained in DMEM (Dulbecco's Modified Eagle's Medium) supplemented with 10% fetal bovine serum (MidSci; S01520HI), and 1% penicillin-streptomycin (Sigma-Aldrich; P4333) at 37° C. with 5% CO2.
Cytotoxicity studies. Test compound was dissolved in DMSO to afford a stock solution. The final concentration of DMSO in the cell culture was 1% (v/v) in PBS. HeLa cells were seeded in 96-well plates one day before the experiment. Different concentrations of prodrug was added into the cell culture. The cells were then incubated for 48 h at 37° C. with 5% CO2. The cell viability was tested by the MTT assay described in Levitz, S. M., et al. J Infect Dis 1985, 152, 938-945. Specifically, after 48 h of incubation, 5 mg/mL MTT (3-(4,5-dimethylthiazol-2-yl)-2,5-diphenyltetrazolium bromide) was added into the cell culture. After incubation for 4 h, the supernatant was removed and 100 μL DMSO was added into the wells containing the cells. After shaking gently for 3 min, absorbance at 605 nm was read by a plate reader.
Cytotoxicity studies using crystal violet assay. The test compound was dissolved in DMSO to afford a stock solution. The final concentration of DMSO in cell culture was 1% (v/v) in PBS. HeLa cells were seeded in 96-well plates one day before the experiment. Different concentrations of the test compound were added into the cell culture. The cells were then incubated for 48 h at 37° C. with 5% CO2. Cell viability was tested by the crystal violet assay. Specifically, after 48 h of incubation, the cells were fixed in 100% methanol for 10 min and stained for 20 min with a 1% crystal violet solution in 50% methanol, followed by 5 repeated washings with PBS. 50 μL of DMSO was added to each well. After 20 min of incubation, the plates were analyzed in a microplate reader at 595 nm.
Similar results were observed when the alkyne concentration was decreased to 10 μM. For example, the IC50 of TPP-Dox prodrug 1c was about 2 μM in the presence of 2b, while the IC50 for Dox prodrug 1b was well over 10 μM in the presence of 10 μM of the alkyne trigger 2a (FIG. 3a). As controls, both the IC50 values of 1c and 2b alone were higher than 40 μM, and the treatment of 20 μM of alkyne 2a or 2b alone had no effect on cell viability. […] Without such an enrichment, the reaction is expected to be slow, resulting in a lower level of active Dox being released. […] Thus, mitochondrial enrichment leads to triggered release of the drug. The same concept is applicable to the delivery of drugs through other targeting approaches such as receptor-mediated drug delivery.

[2] = Homo sapiens, HeLa, compound alone

| SMILES | k2 at 37° C. (second order rate constant) [1] | IC50 (HeLa cells; in the presence of 100 μM alkyne 2d) | effect on cell viability (HeLa cells) | IC50 (HeLa cells; [2]) | IC50 (HeLa cells; compound alone, listed as Alkyne 2b) |
| --- | --- | --- | --- | --- | --- |
| C#CCOc1ccc(-c2nnc(C(=O)O)nn2)cc1 [1a, 6-(4-(prop-2-yn-1-yloxy)phenyl)-1,2,4,5-tetrazine-3-carboxylic acid] | 0.25 M⁻¹ s⁻¹ | > 100 µM | – | – | – |
| O=C(NCCC[P+](c1ccccc1)(c1ccccc1)c1ccccc1)c1ccc(CC2(O)C#CCCCCC2)cc1.[Br-] (stereo not shown) [2b, (3-(4-((1-hydroxycyclooct-2-yn-1-yl)methyl)benzamido)propyl)-triphenylphosphonium bromide] | – | – | no effect | > 40 µM | > 50 µM |
| COc1cccc2c1C(=O)c1c(O)c3c(c(O)c1C2=O)C[C@@](O)(C(=O)CO)C[C@@H]3O[C@H]1C[C@H](N)[C@H](O)[C@H](C)O1 [Dox, Doxorubicin, reference compound] | – | – | – | ~1 µM | – |
| O=C(O)c1ccc(CC2(O)C#CCCCCC2)cc1 (stereo not shown) [2a, 4-((1-hydroxycyclooct-2-yn-1-yl)methyl)benzoic acid] | – | – | no effect | – | – |
